# Laboratory results reported in ChEMBL document CHEMBL5696442, “Discovery of type II inhibitors of TGFβ-activated kinase 1 (TAK1) and mitogen-activated protein kinase kinase kinase kinase 2 (MAP4K2)” (J Med Chem, 2015).
# The source made the active and inactive calls. No cut-off for these calls is given here.
# Assays:
# [1] = molecular target: Proto-oncogene tyrosine-protein kinase Src (Homo sapiens, UniProt P12931); experiment: Inhibition of SRC ACT labeling site in human Huh-7 cell lysate at 1 uM by KiNativ Profiling analysis relative to control; assay type: subcellular
# [2] = molecular target: Tyrosine-protein kinase Fer (Homo sapiens, UniProt P16591); experiment: Inhibition of FER (unknown origin) ACT labeling site by KiNativ Profiling analysis
# [3] = molecular target: Myosin light chain kinase family member 4 (Homo sapiens) (UniProt Q86YV6); experiment: Inhibition of SgK085 (unknown origin) at 10 uM by Ambit Kinomescan binding assay
# [4] = molecular target: Serine/threonine-protein kinase ULK2 (Homo sapiens) (UniProt Q8IYT8); experiment: Inhibition of ULK2 (unknown origin) at 10 uM by Ambit Kinomescan binding assay
# [5] = molecular target: Serine/threonine-protein kinase WNK4 (Homo sapiens) (UniProt Q96J92); experiment: Inhibition of Wnk4 Lys2 labeling site in human A-375 cells at 0.5 uM by KiNativ Profiling analysis relative to control; assay type: cell-based
# [6] = molecular target: Cyclin-dependent kinase 5 (Homo sapiens) (UniProt Q00535); experiment: Inhibition of CDK5 K2 labeling site harbouring DLKPQNLLINR in human Huh-7 cells at 1 uM by KiNativ Profiling analysis relative to control; assay type: cell-based
# [7] = Inhibition of NEK6/7 K2 labeling site harbouring DIKPANVFITATGVVK in human Huh-7 cells at 1 uM by KiNativ Profiling analysis relative to control; details: condition cancer
# [8] = molecular target: Serine/threonine-protein kinase PAK 1 (Homo sapiens) (UniProt Q13153); experiment: Inhibition of PAK1 (unknown origin) at 10 uM by Ambit Kinomescan binding assay
# [9] = molecular target: Tyrosine-protein kinase SYK (Homo sapiens) (UniProt P43405); experiment: Inhibition of SYK (unknown origin) at 10 uM by Ambit Kinomescan binding assay relative to control; values are per cent of control
# [10] = molecular target: T1, Serine/threonine-protein kinase TAO1 (Homo sapiens) (UniProt Q7L7X3); experiment: Inhibition of TAOK1 (unknown origin) at 10 uM by Ambit Kinomescan binding assay relative to control; values are per cent of control
# T1 sequence (whole entry): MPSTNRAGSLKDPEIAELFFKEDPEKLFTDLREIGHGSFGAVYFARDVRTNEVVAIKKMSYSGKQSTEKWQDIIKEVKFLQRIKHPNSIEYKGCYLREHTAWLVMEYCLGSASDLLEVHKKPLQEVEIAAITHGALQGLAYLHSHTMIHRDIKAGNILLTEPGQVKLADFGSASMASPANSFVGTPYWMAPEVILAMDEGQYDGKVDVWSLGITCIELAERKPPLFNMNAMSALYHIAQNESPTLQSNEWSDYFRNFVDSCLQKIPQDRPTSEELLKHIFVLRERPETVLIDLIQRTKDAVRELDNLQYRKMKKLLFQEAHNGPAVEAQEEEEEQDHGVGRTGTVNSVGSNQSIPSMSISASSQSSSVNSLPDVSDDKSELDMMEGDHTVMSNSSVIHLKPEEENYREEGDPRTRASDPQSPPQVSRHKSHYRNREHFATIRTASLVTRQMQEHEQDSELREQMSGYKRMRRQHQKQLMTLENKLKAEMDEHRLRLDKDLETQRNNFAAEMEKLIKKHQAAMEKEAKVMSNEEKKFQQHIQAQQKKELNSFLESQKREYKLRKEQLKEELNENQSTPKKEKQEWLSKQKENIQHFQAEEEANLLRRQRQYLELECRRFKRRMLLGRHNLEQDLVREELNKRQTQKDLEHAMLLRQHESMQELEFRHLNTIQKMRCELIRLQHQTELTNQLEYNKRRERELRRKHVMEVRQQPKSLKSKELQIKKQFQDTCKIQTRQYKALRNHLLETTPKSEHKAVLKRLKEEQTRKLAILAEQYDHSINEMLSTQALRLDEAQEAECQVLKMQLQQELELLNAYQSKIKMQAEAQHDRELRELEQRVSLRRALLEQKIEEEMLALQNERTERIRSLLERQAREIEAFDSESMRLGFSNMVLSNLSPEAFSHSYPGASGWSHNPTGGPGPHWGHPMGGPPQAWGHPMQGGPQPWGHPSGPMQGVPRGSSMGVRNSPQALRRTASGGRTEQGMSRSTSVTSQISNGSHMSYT
# [11] = molecular target: Ribosomal protein S6 kinase alpha-5 (Homo sapiens) (UniProt O75582); experiment: Inhibition of C-terminal RPS6KA5 kinase domain 2 (unknown origin) at 1 uM by Ambit Kinomescan binding assay relative to control
# [12] = molecular target: Serine/threonine-protein kinase 38 (Homo sapiens) (UniProt Q15208); experiment: Inhibition of NDR1 Lys1 labeling site in human A-375 cells at 0.05 uM by KiNativ Profiling analysis relative to control; assay type: cell-based
# [13] = molecular target: Ephrin type-B receptor 3 (Homo sapiens) (UniProt P54753); experiment: Inhibition of EPHB3 (unknown origin) at 1 uM by Ambit Kinomescan binding assay relative to control; values are per cent of control
# [14] = molecular target: T2, Inhibitor of nuclear factor kappa-B kinase subunit beta (Homo sapiens) (UniProt O14920); experiment: Inhibition of IKK-beta (unknown origin) at 1 uM by Ambit Kinomescan binding assay relative to control; values are per cent of control
# T2 sequence (whole entry): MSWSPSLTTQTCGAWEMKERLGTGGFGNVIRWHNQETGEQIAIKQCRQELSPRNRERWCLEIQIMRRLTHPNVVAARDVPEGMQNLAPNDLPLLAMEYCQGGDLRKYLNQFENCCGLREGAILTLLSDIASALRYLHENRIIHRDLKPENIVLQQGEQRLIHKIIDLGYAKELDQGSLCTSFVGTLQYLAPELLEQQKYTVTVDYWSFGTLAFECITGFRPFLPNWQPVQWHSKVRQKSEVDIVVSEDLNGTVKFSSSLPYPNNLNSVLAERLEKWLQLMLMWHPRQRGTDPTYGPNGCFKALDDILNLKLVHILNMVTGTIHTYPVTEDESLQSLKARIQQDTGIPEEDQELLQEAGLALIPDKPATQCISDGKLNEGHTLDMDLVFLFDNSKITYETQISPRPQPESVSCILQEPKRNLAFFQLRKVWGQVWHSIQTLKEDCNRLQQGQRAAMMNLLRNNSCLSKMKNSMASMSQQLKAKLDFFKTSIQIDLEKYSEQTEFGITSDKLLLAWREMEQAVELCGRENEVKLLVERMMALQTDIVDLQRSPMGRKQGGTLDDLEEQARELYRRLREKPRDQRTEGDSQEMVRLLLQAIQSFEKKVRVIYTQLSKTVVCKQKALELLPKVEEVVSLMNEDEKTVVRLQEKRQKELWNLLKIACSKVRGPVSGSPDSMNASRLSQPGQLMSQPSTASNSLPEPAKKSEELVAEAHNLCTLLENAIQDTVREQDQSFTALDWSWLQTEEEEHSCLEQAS
# Sequence of Ribosomal protein S6 kinase alpha-5 (Homo sapiens) (O75582 whole entry, looked up, the tested form may be a part): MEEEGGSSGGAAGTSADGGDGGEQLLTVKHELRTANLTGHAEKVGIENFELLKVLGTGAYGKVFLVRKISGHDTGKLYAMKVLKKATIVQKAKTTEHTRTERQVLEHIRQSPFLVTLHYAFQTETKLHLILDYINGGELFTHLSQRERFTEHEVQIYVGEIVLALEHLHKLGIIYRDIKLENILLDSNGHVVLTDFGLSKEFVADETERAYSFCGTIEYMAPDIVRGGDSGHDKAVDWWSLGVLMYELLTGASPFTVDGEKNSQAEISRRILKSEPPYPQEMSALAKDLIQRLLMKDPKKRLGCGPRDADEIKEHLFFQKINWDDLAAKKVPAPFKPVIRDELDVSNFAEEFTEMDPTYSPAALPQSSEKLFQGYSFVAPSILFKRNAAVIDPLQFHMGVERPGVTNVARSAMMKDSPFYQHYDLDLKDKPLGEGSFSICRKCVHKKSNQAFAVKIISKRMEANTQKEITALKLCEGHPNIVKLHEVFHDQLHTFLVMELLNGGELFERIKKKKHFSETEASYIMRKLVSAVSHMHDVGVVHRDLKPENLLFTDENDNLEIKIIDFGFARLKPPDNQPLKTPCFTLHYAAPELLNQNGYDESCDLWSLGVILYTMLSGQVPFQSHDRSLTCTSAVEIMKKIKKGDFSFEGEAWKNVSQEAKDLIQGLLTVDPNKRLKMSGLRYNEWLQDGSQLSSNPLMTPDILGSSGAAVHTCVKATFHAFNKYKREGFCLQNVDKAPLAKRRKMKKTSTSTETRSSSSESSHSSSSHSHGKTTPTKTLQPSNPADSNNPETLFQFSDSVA
# Sequence of Serine/threonine-protein kinase PAK 1 (Homo sapiens) (Q13153 whole entry, looked up): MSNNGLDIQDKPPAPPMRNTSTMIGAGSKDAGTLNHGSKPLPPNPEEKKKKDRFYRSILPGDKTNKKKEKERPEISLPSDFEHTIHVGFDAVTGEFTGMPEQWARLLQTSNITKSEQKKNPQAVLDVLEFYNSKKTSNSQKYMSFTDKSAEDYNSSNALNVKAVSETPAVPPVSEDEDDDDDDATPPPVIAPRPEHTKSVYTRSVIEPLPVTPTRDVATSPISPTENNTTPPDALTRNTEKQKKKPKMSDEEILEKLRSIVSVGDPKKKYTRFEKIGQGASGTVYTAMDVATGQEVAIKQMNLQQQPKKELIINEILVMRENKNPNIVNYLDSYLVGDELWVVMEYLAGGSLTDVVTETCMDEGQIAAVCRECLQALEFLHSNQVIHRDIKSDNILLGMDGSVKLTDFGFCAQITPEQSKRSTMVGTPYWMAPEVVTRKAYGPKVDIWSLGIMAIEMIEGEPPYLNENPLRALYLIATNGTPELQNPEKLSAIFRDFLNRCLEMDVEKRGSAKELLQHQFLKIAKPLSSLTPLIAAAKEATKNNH
# Sequence of Proto-oncogene tyrosine-protein kinase Src (P12931 2-536 limits assumed): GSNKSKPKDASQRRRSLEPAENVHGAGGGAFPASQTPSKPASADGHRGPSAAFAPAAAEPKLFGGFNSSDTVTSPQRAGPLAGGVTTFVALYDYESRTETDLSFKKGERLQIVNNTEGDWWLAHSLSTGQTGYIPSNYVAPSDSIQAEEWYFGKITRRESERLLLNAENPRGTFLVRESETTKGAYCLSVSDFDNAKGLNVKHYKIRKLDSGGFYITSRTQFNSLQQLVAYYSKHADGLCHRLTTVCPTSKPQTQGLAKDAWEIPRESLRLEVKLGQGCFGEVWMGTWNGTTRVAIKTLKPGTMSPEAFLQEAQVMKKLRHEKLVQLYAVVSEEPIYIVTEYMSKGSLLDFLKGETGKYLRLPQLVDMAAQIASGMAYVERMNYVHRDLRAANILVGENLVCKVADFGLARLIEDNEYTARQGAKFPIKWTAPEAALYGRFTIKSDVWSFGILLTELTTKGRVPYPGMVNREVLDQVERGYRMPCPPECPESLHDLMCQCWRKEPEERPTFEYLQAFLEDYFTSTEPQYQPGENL
# Sequence of Tyrosine-protein kinase Fer (P16591 whole entry): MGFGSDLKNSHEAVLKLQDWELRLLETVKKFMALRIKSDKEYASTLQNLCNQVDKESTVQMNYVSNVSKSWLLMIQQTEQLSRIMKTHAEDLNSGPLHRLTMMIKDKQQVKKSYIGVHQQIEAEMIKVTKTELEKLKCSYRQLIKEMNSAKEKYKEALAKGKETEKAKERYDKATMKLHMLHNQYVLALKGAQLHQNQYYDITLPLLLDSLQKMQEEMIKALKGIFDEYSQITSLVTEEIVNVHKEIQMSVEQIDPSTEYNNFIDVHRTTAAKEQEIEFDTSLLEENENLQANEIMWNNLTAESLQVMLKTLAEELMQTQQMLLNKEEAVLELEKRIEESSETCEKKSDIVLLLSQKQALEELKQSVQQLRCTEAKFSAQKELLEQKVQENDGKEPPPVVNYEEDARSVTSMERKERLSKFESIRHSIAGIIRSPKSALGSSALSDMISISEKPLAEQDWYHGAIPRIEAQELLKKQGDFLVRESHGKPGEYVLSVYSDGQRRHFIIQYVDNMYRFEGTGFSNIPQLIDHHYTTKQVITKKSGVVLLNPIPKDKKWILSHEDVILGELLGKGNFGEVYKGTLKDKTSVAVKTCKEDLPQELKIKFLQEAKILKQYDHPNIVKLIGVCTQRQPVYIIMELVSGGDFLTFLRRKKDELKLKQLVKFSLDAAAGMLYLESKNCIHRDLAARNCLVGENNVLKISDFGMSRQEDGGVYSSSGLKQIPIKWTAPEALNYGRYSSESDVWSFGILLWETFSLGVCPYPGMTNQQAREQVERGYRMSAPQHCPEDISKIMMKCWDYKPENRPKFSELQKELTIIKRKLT
# Sequence of Serine/threonine-protein kinase WNK4 (Homo sapiens) (Q96J92 whole entry): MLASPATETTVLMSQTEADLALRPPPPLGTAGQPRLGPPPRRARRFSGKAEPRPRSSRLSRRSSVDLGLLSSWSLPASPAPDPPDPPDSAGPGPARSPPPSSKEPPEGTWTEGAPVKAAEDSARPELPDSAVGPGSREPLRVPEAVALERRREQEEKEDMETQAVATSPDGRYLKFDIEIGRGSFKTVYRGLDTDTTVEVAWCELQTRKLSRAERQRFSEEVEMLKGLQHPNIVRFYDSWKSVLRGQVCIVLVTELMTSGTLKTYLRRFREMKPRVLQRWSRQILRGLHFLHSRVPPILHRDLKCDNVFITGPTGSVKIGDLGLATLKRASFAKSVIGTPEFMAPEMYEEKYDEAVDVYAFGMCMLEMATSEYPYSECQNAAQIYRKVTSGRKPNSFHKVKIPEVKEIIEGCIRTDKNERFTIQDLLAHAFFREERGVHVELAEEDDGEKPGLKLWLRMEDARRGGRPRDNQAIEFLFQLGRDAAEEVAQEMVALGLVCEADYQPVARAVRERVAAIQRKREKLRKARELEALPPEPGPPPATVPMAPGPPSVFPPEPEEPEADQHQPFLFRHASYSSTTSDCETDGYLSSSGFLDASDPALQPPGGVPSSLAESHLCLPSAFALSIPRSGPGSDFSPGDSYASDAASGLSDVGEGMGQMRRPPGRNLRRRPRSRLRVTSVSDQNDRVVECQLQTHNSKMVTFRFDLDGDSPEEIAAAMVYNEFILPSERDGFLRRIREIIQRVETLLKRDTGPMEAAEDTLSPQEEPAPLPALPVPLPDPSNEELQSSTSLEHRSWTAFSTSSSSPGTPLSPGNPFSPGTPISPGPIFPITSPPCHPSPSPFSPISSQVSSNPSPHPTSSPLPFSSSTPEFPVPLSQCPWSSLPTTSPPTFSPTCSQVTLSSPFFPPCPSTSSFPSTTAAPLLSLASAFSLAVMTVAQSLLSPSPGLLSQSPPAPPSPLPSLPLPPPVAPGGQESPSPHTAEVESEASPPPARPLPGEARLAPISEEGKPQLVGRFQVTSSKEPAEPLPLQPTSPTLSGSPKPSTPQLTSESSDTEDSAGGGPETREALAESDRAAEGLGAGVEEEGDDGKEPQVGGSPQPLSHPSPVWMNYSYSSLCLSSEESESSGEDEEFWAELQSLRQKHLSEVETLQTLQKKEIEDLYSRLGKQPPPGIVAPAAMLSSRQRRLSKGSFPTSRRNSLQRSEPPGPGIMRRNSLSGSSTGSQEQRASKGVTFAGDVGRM
# Sequence of Serine/threonine-protein kinase 38 (Homo sapiens) (Q15208 2-465 limits assumed): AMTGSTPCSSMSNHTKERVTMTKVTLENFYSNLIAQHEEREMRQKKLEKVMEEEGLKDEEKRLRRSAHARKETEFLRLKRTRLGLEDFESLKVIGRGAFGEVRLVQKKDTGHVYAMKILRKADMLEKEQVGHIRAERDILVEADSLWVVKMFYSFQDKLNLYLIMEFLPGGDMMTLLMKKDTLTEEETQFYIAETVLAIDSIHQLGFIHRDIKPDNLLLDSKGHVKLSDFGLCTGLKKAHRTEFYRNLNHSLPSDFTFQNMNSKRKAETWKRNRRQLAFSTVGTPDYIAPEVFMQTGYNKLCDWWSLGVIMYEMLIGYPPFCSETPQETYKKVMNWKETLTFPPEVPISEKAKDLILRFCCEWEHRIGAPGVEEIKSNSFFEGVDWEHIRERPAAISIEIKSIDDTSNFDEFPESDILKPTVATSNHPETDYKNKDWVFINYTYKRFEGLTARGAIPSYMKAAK
# Sequence of Myosin light chain kinase family member 4 (Homo sapiens) (Q86YV6 whole entry): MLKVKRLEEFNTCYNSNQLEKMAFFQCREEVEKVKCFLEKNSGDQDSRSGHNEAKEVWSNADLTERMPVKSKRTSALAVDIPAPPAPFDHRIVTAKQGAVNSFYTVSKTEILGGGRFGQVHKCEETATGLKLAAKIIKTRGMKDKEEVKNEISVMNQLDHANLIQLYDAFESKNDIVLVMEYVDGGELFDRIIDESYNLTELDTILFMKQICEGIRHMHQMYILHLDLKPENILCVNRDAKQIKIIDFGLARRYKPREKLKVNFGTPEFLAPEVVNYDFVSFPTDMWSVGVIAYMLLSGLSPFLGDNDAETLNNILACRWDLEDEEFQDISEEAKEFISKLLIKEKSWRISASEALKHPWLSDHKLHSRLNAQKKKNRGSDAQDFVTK
smiles,measurement,setting,value
CNc1cc(Oc2cc(C(=O)Nc3cc(N4CCN(C)CC4)cc(C(F)(F)F)c3)ccc2C)ncn1,inhibition,[1],22%
CCN1CCN(Cc2ccc(NC(=O)c3ccc(C)c(Oc4ccnc5[nH]ccc45)c3)cc2C(F)(F)F)CC1,IC50,[2],82.3 nM
same,inhibition,[3],inactive
same,inhibition,[4],inactive
same,inhibition,[5],7.9%
same,inhibition,[6],-7.6%
same,inhibition at 1 µM,[7],-13.1%
same,inhibition,[8],inactive
same,residual activity,[9],6.2%
same,residual activity,[10],3%
CCN1CCN(Cc2ccc(NC(=O)c3ccc(C)c(/C=C/c4cnc5[nH]ccc5c4OC)c3)cc2C(F)(F)F)CC1,inhibition,[11],100%
same,inhibition,[12],3.2%
same,residual activity,[13],63%
same,residual activity,[14],5.7%
